This is an account of results in patent publication US20230141563A1, “METHODS AND COMPOSITIONS FOR ATTENUATING ANTI-VIRAL TRANSFER VECTOR IGM RESPONSES” (Selecta Biosciences, Inc., priority 2021, published 2023).

In the assay the test system is AAV IgG. Put plainly: Serum AAV IgG (ELISA) in AAV-SEAP-injected mice. The format is in vivo, C57BL/6 female mice. The note with it: Example 12; SVP[Rapa] 100 μg; ibrutinib 500 μg. Here is the method: At time indicated (days 5, 9, 12, 16, 21, 42, 47, 51, 55, 162,167,174, 195 and 210) mice were bled, serum separated from whole blood and stored at −20±5° C. until analysis. Then IgM antibodies to AAV was measured in ELISA: 96-well plates coated o/n with the AAV, washed and blocked on the following day, then diluted serum samples (1:40) added to the plate and incubated; plates washed, donkey anti-mouse IgM specific-HRP added and after another incubation and wash, the presence of IgM antibodies to AAV detected by adding TMB substrate and measuring at an absorbance of 450 nm with a reference wavelength of 570 nm (the intensity of the signal presented as top optical density, OD, is directly proportional to the quantity of IgM antibody in the sample).
Same serum samples from Example 3 were also tested for AAV IgG measured by ELISA along the same lines as IgM with the exception of goat anti-mouse IgG specific-HRP being used.
On the technique in general: An ELISA detects its analyte on a solid surface through an enzyme-linked reagent.

`C=CC(=O)N1CCC[C@@H](n2nc(-c3ccc(Oc4ccccc4)cc3)c3c(N)ncnc32)C1` [ibrutinib]: the “animals AAV IgG-converting by d22” value is reported as 10/10.
